According to PMC6915999, “Simultaneous hydrolysis with lipase and fermentation of rapeseed cake for iturin A production by Bacillus amyloliquefaciens CX-20” (BMC Biotechnology, 2019):

Test system: lipase
Test: Stability of iturin A to lipase in fermentation broth
Assay type: in vitro ADME
Details: RSM (76.52 g/L) fermentation broth after 72 h fermentation; 5 U/mL lipase added vs no lipase; continued at 28 °C, 220 rpm; iturin A concentration at 0, 24, 48 and 72 h by HPLC (210 nm); triplicate; Fig. 5
Experimental: Iturin A was extracted according to a reported method. Briefly, 0.3 mL of the mixed fermentation broth was added into a 2 mL glass tube containing 1.2 mL of methanol, shaken well and incubated for 60 min. The mixture was centrifuged at 12,000 rpm for 20 min, and the supernatant was filtered through a 0.22 μm pore-size hydrophobic polytetrafluoroethylene (PTFE) type disposable syringe. The iturin A concentration was quantified using a Waters 2695 HPLC system equipped with an ACQUITY UPLC BEA C18 column (1.7 μm 2.1 × 100 mm, Waters, USA). A mixture of acetonitrile and 10 mM ammonium acetate (35:65, v/v) was used as the mobile phase at a flow rate of 0.3 mL/min, and the elution was monitored at 210 nm. The concentration of iturin A was analyzed and quantified using an authentic reference standard (Sigma Chemicals, St. Louis, MO, USA). The content of iturin A was measured using triplicate samples.
First, submerged fermentation were performed in 250 mL flasks with 20 mL medium, containing (per liter): 60 g glucose, 1 g K2HPO4·3H2O, 0.5 g MgSO4·7H2O, 0.005 g MnSO4·H2O, and 76.52 g RSM. After 72 h of fermentation, the fermentation broth was divided into two groups. Therein, one group supplemented with 5 U/mL lipase while the other without lipase addition. […] And the concentrations of iturin A at different time (0, 24, 48 and 72 h) were measured.

iturin A
stability of iturin A to excess lipase: almost no effect on the stability of iturin A
